Reference: patent publication US8067638B2, “Amide derivative and insecticide containing the same” (Mitsui Chemicals, Inc., priority 2005, dated 2011)

Columns and labels:
[1] = test system: Common Cutworm (Spodoptera litura); assay: Insecticidal test on common cutworm (Spodoptera litura); assay type: in vivo; conditions: 144 h, cabbage leaf immersed, second-instar larvae, counted 6 days after release, 25° C.
Experimental: Insecticidal Test on Common Cutworm (Spodoptera litura)
(§1) A piece of cabbage leaf was immersed for 30 seconds in a liquid chemical prepared by diluting a test compound to a prescribed concentration. After air-drying, the piece was put into a 7-cm polyethylene cup and second-instar larvae of common cutworms were released thereinto. The polyethylene cups were set in an isothermal chamber thermostated at 25° C. From the release 6 days later, the dead and alive were counted. The test was carried out with two replications of 5 insects per a plot.

[2] = test system: Diamondback Moth (Plutella xylostella); assay: Insecticidal test on diamondback moth (Plutella xylostella); assay type: in vivo; conditions: 144 h, cabbage leaf immersed, second-instar larvae, counted 6 days after release, 25° C.
Experimental: Insecticidal Test on Diamondback Moth (Plutella xylostella)
as §1, with “diamondback moths” for “common cutworms”

Row | SMILES | mortality at 100 ppm [1] | mortality at 100 ppm [2]
1 | Cc1cc(C(F)(C(F)(F)F)C(F)(F)F)cc(C)c1NC(=O)c1cccc(Nc2ccc([N+](=O)[O-])cc2)c1 [Compound No. 5-9, N-[2,6-dimethyl-4-(heptafluoroisopropyl)phenyl]-3-(4-nitrophenylamino)-benzamide] | ≥ 70% | ≥ 70%
2 | O=C(Nc1c(Br)cc(OC(F)(F)C(F)C(F)(F)F)cc1Br)c1cccc(NC(=O)c2ccccc2F)c1 (stereo not drawn) [Compound No. 2-8, N-(2,6-dibromo-4-(1,1,2,3,3,3-hexafluoropropoxy)phenyl) 3-[(2-fluorobenzoyl)amino]benzamide] | ≥ 70% | ≥ 70%
3 | Cc1cc(OS(=O)(=O)C(F)(F)F)cc(Br)c1NC(=O)c1cccc(NC(=O)c2ccccc2)c1 [Compound No. 1-369, N-(2-bromo-6-methyl-4-trifluoromethanesulfonyloxyphenyl) 3-(benzoylamino)benzamide] | ≥ 70% | ≥ 70%
4 | O=C(Nc1cccc(C(=O)Nc2ccc3ncsc3c2)c1)c1ccccc1 [Compound No. 1-492, N-benzothiazol-6-yl 3-(benzoylamino)benzamide] | ≥ 70% | 
5 | O=C(Nc1cccc(C(=O)Nc2ccc(OC(C(F)(F)F)C(F)(F)F)nc2Br)c1)c1ccccc1 [Compound No. 1-387, N-[2-bromo-6-(2,2,2-trifluoro-1-trifluoromethylethoxy)-pyridin-3-yl]3-(benzoylamino)benzamide] | ≥ 70% | ≥ 70%
